In brackets after ≈: the same amount, converted by molar mass. Where two headings read alike, the source gives them in different places.

One may read the LD50 as the dose expected to kill half of the subjects tested. A higher LD50 goes with a less toxic substance.

Data set [1] is described as follows: Oral toxicity to mice. Conditions: mouse, in vivo.
Data set [2] concerns adult mosquitoes (Culex pipiens). The experiment in a line: Knock-down of adult mosquitoes by 0.2% oil preparation (Experimental Example 4). It counts as in vivo. The following applies: read-out: mosquitoes knocked down. On the procedure:
(§1) 0.2% oil preparation was prepared from each of the compounds (1), (2), (8), (14), (22), (25), (26), (27), (51), (62), (73), (82), (86), (88), to (90), (92), (94), (96), (111), (119), (121), (165), (175), (180), (184), (185), (195), (200), (201), and (208) and allethrin as a control using deodorized kerosene.

The subject of data set [3] is oriental house flies. The experiment in a line: Activity on knock-down against oriental house flies (Experimental Example 5). The data set is classed as in vivo. Conditions: 0.2% oil preparation, 0.7 ml, 1.5 Kg/cm^2, (70 cm)^3 glass box. On the procedure: as §1
20 oriental house flies per group were released in a (70 cm)^3 volume glass box and sprayed with each of the oil preparations prepared in Experimental Example 4 from the compounds of Table 3 below and allethrin in an amount of 0.7 ml under a pressure of 1.5 Kg/cm^2.

The test system of data set [4] is oriental house flies. The experiment in a line: Potentiation of insecticidal activity by addition of piperonyl butoxide, topical application (Experimental Example 6). The data set is classed as in vivo. Conditions: piperonyl butoxide 5 times active ingredient; acetone solution on thoracic dorsal plate. On the procedure:
To each of the compounds (22), (51), (62), (63), (82), (86), (125), (150), (160), (176), (177), (178), (184), (185), (191), (195), (200), (201), (204), (208), (210), (212) and (226) was added piperonyl butoxide in an amount of 5 times that of the active ingredient, respectively to prepare an acetone solution having a given concentration. Each of the thus prepared acetone solutions was applied onto a thoracic dosal plate of oriental house flies using a microshringe to observe a synergestic effect on insecticidal activity by piperonyl butoxide.

Data set [5] concerns Larvae of Mosquito (Culex pipiens). The experiment in a line: Insecticidal activity on larvae of mosquito (Experimental Example 2). The data set is classed as in vivo. The following applies: 24 h, read-out: LC50 (50% lethal concentration). On the procedure:
An emulsifiable concentrate was prepared by blending each of the compounds (1) to (300) of the present invention, xylol and Sorpol SM-200 (trade name; manufactured by Toho Chemical Co., Ltd.) in a proportion of 25%, 50% and 25% (by weight), respectively. 20 to 25 day-old rice plants after seeding were grown in pots and sprayed with each 300-fold dilute solution of the emulsifiable concentrates thus prepared and a 300-fold dilute solution of carbaryl 30% wettable powder diluted with water as a control commercial agent in an amount of 10 ml/pot in each case and then the pots were covered by a cylindrical metal net. 15 small brown planthoppers (Delphacodes striatella Fallen) per group were released in each of the pots treated with carbaryl wettable powder, and compound (1) to (21) and (102) to (110), while 15 green rice leafhopper (Nephotettix bipuntatus cincticeps Uhler) per group were released in each of the pots treated with the carbaryl wettable powder and compounds (22) to (101) and (111) to (300).
Of the emulsifiable concentrates prepared in Experimental Example 1, each of those prepared from the compounds of Table 1 below was diluted with water to each of test concentrations and a 200 ml portion thereof was added to a 300 ml volume beaker. 30 larvae of mosquito per group were released in each of the beaker and allowed to stand for 1 day. Survival was observed and a LC50 (50% lethal concentration) was determined by calculating a percent killing in each case. As a control, lindane emulsifiable concentrate was used.

Where [6] appears, read: 0.2% oil preparation, 0.7 ml, 1.5 Kg/cm^2, (70 Cm)^3 glass box.

In data set [1], `CC(C)C(C(=O)OCN1C(=O)c2ccccc2C1=O)c1ccc(Cl)cc1` (stereo not shown) [compound 130] showed an LD50 greater than 1000 mg/kg.
For `C#CCc1cc(C(C#C)OC(=O)C(CC)c2ccccc2)co1` (stereo not drawn) [compound 8, 5'-Propargyl-α '-ethynyl-3'-furylmethyl-α-ethyl-phenylacetate], in data set [2] (setting [6]), the pest or weed control at 0.2 % is greater than 80%. Moreover, the LD50 in data set [1] stood at 750 mg/kg. Also, the “KT50 (50% knock-down time)” value in data set [3] came to 128 s.
In the case of `COc1ccc(C(C(=O)OCc2cccc(Oc3ccccc3)c2)C(C)C)cc1` (stereo not drawn) [compound 62, 3'-Phenoxybenzyl-α-isopropyl-4-methoxyphenylacetate], the pest or weed control at 0.2 % in data set [2] (setting [6]) was greater than 80%. Also, the “Potentiation magnification of insecticidal activity by the addition of piperonyl butoxide” value (“Potentiation magnification” for short) in data set [4] worked out at 5.3. Moreover, in data set [1], the 50% lethal dose (LD50) was greater than 1000 mg/kg. Also, the “KT50 (50% knock-down time)” value in data set [3] was found to be 154 s.
As to `C#CCc1cc(C)c(COC(=O)C(c2ccc(Cl)cc2)C(C)C)c(C)c1` (stereo not shown) [compound 129], the 50% lethal dose (LD50) in data set [1] was greater than 1000 mg/kg.
`CCC(C(=O)OCc1coc(Oc2ccccc2)c1)c1ccc(Cl)cc1` (stereo not shown) [compound 180]: the pest or weed control at 0.2 % in data set [2] (setting [6]) is greater than 80%. Further, the “KT50 (50% knock-down time)” value in data set [3] was determined as 157 s. For the same compound, the LC50 in data set [5] was determined as 7.2 ng/mL (≈ 19.4 nM).
Take `CCC(C(=O)OCc1coc(Cc2ccccc2)c1)c1ccccc1` (stereo not drawn) [compound 1, 5'-Benzyl-3'-furylmethyl-α-ethyl-phenylacetate]: in data set [2] (setting [6]), the pest or weed control at 0.2 % was greater than 80%. In data set [1], this compound showed an LD50 greater than 1000 mg/kg. In data set [3], the “KT50 (50% knock-down time)” value was determined as 167 s. Besides, the LC50 in data set [5] was 1.5 ng/mL (≈ 4.49 nM).
`C=C(C)C(C(=O)OCc1cccc(Oc2ccccc2)c1)c1ccc(OC)cc1` (stereo not drawn) [compound 82, 3'-Phenoxybenzyl-α-isopropenyl-4-methoxyphenylacetate]: the pest or weed control at 0.2 % in data set [2] (setting [6]) is greater than 80%. Further, the “Potentiation magnification” value in data set [4] is on record as 6.7. Moreover, the LD50 in data set [1] was greater than 1000 mg/kg. Besides, the “KT50 (50% knock-down time)” value in data set [3] was found to be 132 s.
In the case of `COc1ccc(C(C(=O)OCc2ccc(Oc3ccccc3)o2)C(C)C)cc1` (stereo not drawn) [compound 63, 5'-Phenoxyfurfuryl-α-isopropyl-4-methoxyphenylacetate], the “Potentiation magnification” value in data set [4] worked out at 4.8. The LD50 in data set [1] is greater than 1000 mg/kg. Further, the “KT50 (50% knock-down time)” value in data set [3] turned out to be 140 s.
For the compound `COc1ccc(C(C(=O)OCc2cccc(Cc3ccccc3)c2)C(C)C)cc1` (stereo not drawn) [compound 89, 3'-Benzylbenzyl-α-isopropyl-4-methoxyphenylacetate], in data set [3], the “KT50 (50% knock-down time)” value is 155 s.
Regarding `Cc1ccc(C(C(=O)OCc2cc3c(s2)CCCC3)C(C)C)cc1` (stereo not shown) [compound 150], the “Potentiation magnification” value in data set [4] came out at 4.2. Besides, in data set [1], the median lethal dose (LD50) is greater than 1000 mg/kg.
`CCC(C(=O)OCc1cccc(Oc2ccccc2)c1)c1ccccc1` (stereo not drawn) [compound 2, 3'-Phenoxybenzyl-α-ethylphenylacetate]: the pest or weed control at 0.2 % in data set [2] (setting [6]) was greater than 80%. In data set [1], this compound gave an LD50 greater than 1000 mg/kg. The LC50 in data set [5] amounted to 3.4 ng/mL (≈ 9.81 nM).
For the compound `C=C(C)C(C(=O)OCc1cccc(Oc2ccccc2)c1)c1ccc(Br)cc1` (stereo not drawn) [compound 111, 3'-Phenoxybenzyl-α-isopropenyl-4-bromophenylacetate], the pest or weed control at 0.2 % in data set [2] (setting [6]) is greater than 80%. Besides, in data set [3], the “KT50 (50% knock-down time)” value worked out at 138 s. Further, the LC50 in data set [5] was 2.5 ng/mL (≈ 5.72 nM).
Taken in the same sequence, the figures for `CC(C)C(C(=O)OC(C#N)c1cccc(Oc2ccccc2)c1)c1ccc(F)cc1` (stereo not shown) [compound 165] were greater than 80%, 145 s and 1.2 ng/mL (≈ 2.97 nM).
Regarding `CCC(C(=O)OCc1cccc(Oc2ccccc2)c1)c1ccc(C)cc1` (stereo not shown) [compound 176], the “Potentiation magnification” value in data set [4] is 5.2. In addition, the median lethal dose (LD50) in data set [1] was greater than 1000 mg/kg.
Take `COc1ccc(C(C(=O)OCc2cc3c(o2)CCCC3)C(C)C)cc1` (stereo not drawn) [compound 88, 4',5'-Tetramethylenefurfuryl-α-isopropyl-4-methoxyphenylacetate]: the pest or weed control at 0.2 % in data set [2] (setting [6]) was greater than 80%. Besides, in data set [3], the “KT50 (50% knock-down time)” value turned out to be 147 s.
Take `CC(C)C(C(=O)OCc1cccc(Oc2ccccc2)c1)c1ccc(Cl)cc1` (stereo not shown) [compound 206]: the “Potentiation magnification” value in data set [4] is recorded as 5.1. In addition, the 50% lethal dose (LD50) in data set [1] was greater than 1000 mg/kg. The LC50 in data set [5] worked out at 3.2 ng/mL (≈ 8.1 nM).
Regarding `Cc1ccc(C(C(=O)OCc2coc(Oc3ccccc3)c2)C(C)C)cc1` (stereo not shown) [compound 195], the pest or weed control at 0.2 % in data set [2] (setting [6]) is greater than 80%. Moreover, in data set [4], the “Potentiation magnification” value came out at 5.7. For the same compound, the “KT50 (50% knock-down time)” value in data set [3] was determined as 140 s.
For `C=CCC1=C(C)C(OC(=O)C2C(C=C(C)C)C2(C)C)CC1=O` (stereo not shown) [allethrin, reference compound], in data set [2], the pest or weed control at 0.2 % is greater than 80%. Also, the “KT50 (50% knock-down time)” value in data set [3] turned out to be 186 s.
Regarding `C=C(C)C(C(=O)OCc1cccc(Oc2ccccc2)c1)c1ccc(OC)cc1C` (stereo not drawn) [compound 96, 3'-Phenoxybenzyl-α-isopropenyl-2-methyl-4-methoxyphenylacetate], the pest or weed control at 0.2 % in data set [2] (setting [6]) was greater than 80%. Further, in data set [3], the “KT50 (50% knock-down time)” value amounted to 92 s.
As for `Cc1ccc(C(C(=O)OCc2cccc(Oc3ccccc3)c2)C(C)C)cc1` (stereo not drawn) [compound 108, 3'-Phenoxybenzyl-α-isopropyl-4-methylphenylacetate], the LD50 in data set [1] was greater than 1000 mg/kg.
In the case of `C#CCc1ccc(C(C#C)OC(=O)C(c2ccc(Cl)cc2)C(C)C)o1` (stereo not shown) [compound 201], in data set [2] (setting [6]), the pest or weed control at 0.2 % was greater than 80%. The “Potentiation magnification” value in data set [4] is 7.0. Moreover, the “KT50 (50% knock-down time)” value in data set [3] was 105 s.
As to `Cc1ccc(C(C(=O)OCc2ccc(Cc3ccco3)s2)C(C)C)cc1` (stereo not shown) [compound 145], in data set [1], the LD50 was greater than 1000 mg/kg. The LC50 in data set [5] is 3.9 ng/mL (≈ 10.6 nM).
As to `CCC(C(=O)OCc1coc(Cc2ccccc2)c1)c1ccc(F)cc1` (stereo not shown) [compound 185], the pest or weed control at 0.2 % in data set [2] (setting [6]) was greater than 80%. For the same compound, the “Potentiation magnification” value in data set [4] was 5.0. Besides, the “KT50 (50% knock-down time)” value in data set [3] is 137 s.
As to `C=C(C)C(C(=O)OCc1cccc(Oc2ccccc2)c1)c1ccc(F)cc1` (stereo not drawn) [compound 121, 3'-Phenoxybenzyl-α-isopropenyl-4-fluorophenylacetate], the pest or weed control at 0.2 % in data set [2] (setting [6]) was greater than 80%. For the same compound, the “KT50 (50% knock-down time)” value in data set [3] was 130 s. Also, the LC50 in data set [5] came to 3.7 ng/mL (≈ 9.83 nM).
In data set [1], `CCC(C(=O)OCc1cccc(Oc2ccccc2)c1)c1ccc(OC)cc1` (stereo not drawn) [compound 80, 3'-Phenoxybenzyl-α-ethyl-4-methoxyphenylacetate] registered a median lethal dose (LD50) greater than 2000 mg/kg.
In the case of `C#CCc1ccc(C(C#C)OC(=O)C(c2ccc(C)cc2)C(C)C)o1` (stereo not shown) [compound 200], the pest or weed control at 0.2 % in data set [2] (setting [6]) was greater than 80%. The “Potentiation magnification” value in data set [4] came to 7.5. Moreover, the “KT50 (50% knock-down time)” value in data set [3] was determined as 114 s.
Taken in the same sequence, the figures for `CC(C)C(C(=O)OCc1coc(Cc2ccccc2)c1)c1ccc(F)cc1` (stereo not shown) [compound 208] were greater than 80%, 5.2 and 150 s.
In the case of `CCC(C(=O)OCc1coc(Cc2ccco2)c1)c1ccc(Br)cc1` (stereo not shown) [compound 175], the pest or weed control at 0.2 % in data set [2] (setting [6]) was greater than 80%. The “KT50 (50% knock-down time)” value in data set [3] came to 152 s.
For the compound `C=C(C)C(C(=O)OCc1cccc(Oc2ccccc2)c1)c1ccc(C)cc1` (stereo not drawn) [compound 125, 3'-Phenoxybenzyl-α -isopropenyl-4-methylphenylacetate], the “Potentiation magnification” value in data set [4] came out at 6.0. The compound also returned an LD50 in data set [1] of 1000 mg/kg. Moreover, in data set [5], the LC50 was determined as 3.2 ng/mL (≈ 8.59 nM).
On to `C#CCc1ccc(C(C#C)OC(=O)C(c2ccc(OC)cc2)C(C)C)o1` (stereo not drawn) [compound 51, 5'-Propargyl-2'-(α'-ethynyl)-furfuryl-α-isopropyl-4-methoxyphenylacetate], for which the pest or weed control at 0.2 % in data set [2] (setting [6]) was greater than 80%. Also, in data set [4], the “Potentiation magnification” value is 7.2. Besides, the “KT50 (50% knock-down time)” value in data set [3] was 104 s.

Source of the values: US4031235A, “Insecticidal substituted acetate compounds” (Sumitomo Chemical Company, Limited, priority 1972, dated 1977).
